The subject of series [1] is SUM159 cells. Kind of series: CDCFH2 / CDCF probe labeling (intracellular hydroperoxides), SUM159. Format: cell-based, human. Particulars: oxidation-sensitive probe. The method, then:
(§1) FIGS. 5A-5D: CDCFH2 oxidation sensitive and CDCF oxidation insensitive probe labeling of BSO, DTPP, and AUR exposed SUM159 and HMECs cells. Asynchronously growing cultures of SUM159 (Panels A, B) and HMECs (Panes C, D) were plated and treated as described in FIG. 1. Monolayer cultures were harvested and trypsinized, washed once with PBS then labeled in PBS with either CDCFH2 (Panesl A, C) or CDCF (Panels B, D)(10 μg/mL, in 0.1% DMSO 15 minutes) at 37° C. Mean fluorescence intensity (MFI) of 10,000 cells was analyzed by flow cytometry. Samples were assayed in triplicate; Mean±1 SEM of 3 separate experiments containing 3 treatment dishes per group (n=9), *p<0.001 as compared to Control.
FIG. 9: Catalase inhibitable CDCFH2 oxidation in BSO, DTPP, and AUR exposed SUM159 cells. […] Mean fluorescence intensity (MFI) of 10,000 cells was analyzed by flow cytometry. […]
(§2) Measurement of Intracellular Hydroperoxides: Steady-state levels of hydroperoxides were estimated using the oxidation sensitive {5-(and-6)-carboxy-2′,7′-dichlorodihydrofluorescein diacetate, (CDCFH2)} and oxidation-insensitive {5-(and-6)-carboxy-2′,7′-dichlorofluorescein diacetate, (CDCF)} fluorescent dyes purchased from Molecular Probes. […] Samples were analyzed using a FACScan flowcytometer (Becton Dickinson Immuno-cytometry System, INC., Mountain View, Calif.) (excitation 488 nm, emission 530 nm band-pass filter). […]

For series [2], the system named is HMECs. Kind of series: CDCFH2 / CDCF probe labeling (intracellular hydroperoxides), HMEC. The format is cell-based, human. Particulars: oxidation-insensitive probe. As for the experimental part: as §1
as §2, with “Probes. Cells were plated and treated with BSO, DTPP and AUR as described above.” for “Probes.”, “filter). The MFI of 10,000 cells was analyzed in each sample and corrected for autofluorescence from unlabeled cells.” for “filter).”

Series [3] has as its system A375 melanoma cells. Kind of series: MTT survival fraction analysis, A375. The format is cell-based.

Consider `CCCCCCCCCC[P+](c1ccccc1)(c1ccccc1)c1ccccc1` [DTPP, Decyl-Triphenylphosphonium], for which, in series [1], the “increase in CDCFH2 oxidation compared to control” value was 2 fold. Further, the “CDCF labeling signal relative to control” value in series [2] is recorded as 2 fold. In addition, the “cytotoxicity in the absence of BSO, in words” value in series [3] is reported as “intermediate cytotoxicity”.
